Results: patent US20120088753A1, “PYRROLOPYRIMIDINES AND USED AS KINASE INHIBITORS” (MEDICAL RESEARCH COUNCIL TECHNOLOGY, priority 2009, published 2012)
pIC50: −log10 of the molar value.

Each compound was assayed against T1, TBK1 (Homo sapiens, UniProt Q9UHD2) (assay: TBK1 protein kinase assay ([γ-33P]ATP filter-plate, IC50 from 10 concentrations)). Conditions: 50 μM ATP, peptide substrate 300 μM, 30 min, 21° C.; read-out: Potency score (TBK1 IC50).
T1 construct: All protein kinases were of human origin and encoded full length proteins, unless indicated otherwise; His6; made in house; host or cells: insect Sf21 cells
T1 sequence (Q9UHD2 1-729): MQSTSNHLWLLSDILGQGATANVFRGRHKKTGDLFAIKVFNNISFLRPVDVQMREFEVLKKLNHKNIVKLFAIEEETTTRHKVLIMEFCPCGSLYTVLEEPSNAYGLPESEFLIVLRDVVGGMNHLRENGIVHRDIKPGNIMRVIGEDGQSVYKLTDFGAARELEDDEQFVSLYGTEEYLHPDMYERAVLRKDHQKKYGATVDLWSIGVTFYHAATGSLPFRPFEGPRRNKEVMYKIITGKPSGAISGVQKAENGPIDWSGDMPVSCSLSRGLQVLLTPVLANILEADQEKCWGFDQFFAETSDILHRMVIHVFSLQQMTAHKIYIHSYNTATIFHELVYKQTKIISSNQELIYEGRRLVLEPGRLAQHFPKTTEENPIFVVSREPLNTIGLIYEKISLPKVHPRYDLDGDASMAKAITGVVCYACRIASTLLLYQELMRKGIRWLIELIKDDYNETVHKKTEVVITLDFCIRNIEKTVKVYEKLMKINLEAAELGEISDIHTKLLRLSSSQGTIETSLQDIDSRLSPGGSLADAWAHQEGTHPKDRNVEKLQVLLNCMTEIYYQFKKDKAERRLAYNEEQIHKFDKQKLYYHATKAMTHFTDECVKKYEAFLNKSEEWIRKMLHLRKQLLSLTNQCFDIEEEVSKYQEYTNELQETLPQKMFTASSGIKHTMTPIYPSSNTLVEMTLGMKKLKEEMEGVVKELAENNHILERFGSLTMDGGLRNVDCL
Assay type: biochemical
Source text: All protein kinases were of human origin and encoded full length proteins, unless indicated otherwise. They were either expressed as glutathione S-transferase (GST) fusion proteins in Escherichia Coli or as hexahistidine (His6)-tagged proteins in insect Sf21 cells. GST fusion proteins were purified by affinity chromatography on glutathione-Sepharose, and His6-tagged proteins on nickel/nitriloacetate-agarose. The procedures for expressing some of the protein kinases used herein have been detailed previously.^8,9 The following sections outline the DNA vectors synthesised and the procedures used to express and purifying protein kinases that have not been reported previously.
The following kinases were expressed in Sf21 cells: Aurora B and Aurora C, extra-cellular signal-regulated kinase 8 (ERK8), microtubule affinity regulating kinase 3 (MARK3), protein kinase Bα[118-480][S473D], protein kinase Bβ (PKBβ[120-481][S474D], 3-phosphoinositide-dependent protein kinase-1 [52-556] (PDK1[52-556], IKKε, TBK1,
All assays (25.5 μl) were carried out at room temperature (21° C.) and were linear with respect to time and enzyme concentration under the conditions used. Assays were performed for 30 min using Multidrop Micro reagent dispensers (Thermo Electron Corporation, Waltham, Mass. 02454, USA) in a 96-well format. The concentration of magnesium acetate in the assays was 10 mM and the [γ-33P] ATP (800 cpm/pmol) was used at 5, 20 or 50 μM as indicated, in order to be at or below the Km for ATP for each enzyme. Protein kinases assayed at 5 μM ATP were: ERK1, ERK8, PKBα, MARK3, Aurora C. Protein kinases assayed at 20 μM ATP were: JNK1, PDK1, CHK1, CHK2, CDK2 and Aurora B. Protein kinases assayed at 50 μM ATP were: MNK2, IKKepsilon and TBK1.
The assays were initiated with MgATP, stopped by addition of 5 μl of 0.5 M orthophosphoric acid and spotted on to P81 filterplates using a unifilter harvester (PerkinElmer, Boston, Mass. 02118, USA). The IC50 values of inhibitors were determined after carrying out assays at 10 different concentrations of each compound.
ERK1 and ERK8 were both assayed against myelin basic protein (MBP, 0.33 mg/ml). MARK3 was assayed against the peptide […] (300 μM), MNK2 against the eIF4E protein (0.5 mg/ml). PKBβ was assayed against the peptide GRPRTSSFAEGKK (30 μM). TBK1 were assayed against ([…]) (300 μM). The substrates used for other protein kinases were described previously.^8,9
Unless stated otherwise, enzymes were diluted in 50 mM Tris/HCl pH 7.5, 0.1 mM EGTA, 1 mg/ml BSA, 0.1% (v/v) 2-mercaptoethanol and assayed in 50 mM Tris/HCl pH 7.5, 0.1 mM EGTA, 0.1% (v/v) 2-mercaptoethanol.

| SMILES | pIC50 |
| --- | --- |
| CC(C)CC(=O)NCCCn1ccc2cnc(Nc3ccc(N4CCOCC4)nc3)nc21 [Example 19, 3-Methyl-N-{3-[2-(6-morpholin-4-yl-pyridin-3-ylamino)-pyrrolo[2,3-d]pyrimidin-7-yl]-propyl}-butyramide] | 6.00 to 7.00 |
| CCn1cc(Nc2ncc3ccn(CCCNC(=O)C4CCC4)c3n2)cn1 [Example 47, Cyclobutanecarboxylic acid {3-[2-(1-ethyl-1H-pyrazol-4-ylamino)-pyrrolo[2,3-d]pyrimidin-7-yl]-propyl}-amide] | > 7.00 |
| O=C(NCCCn1ccc2cnc(Nc3ccc(N4CCOCC4)cc3)nc21)C1CCC1 [Example 3, Cyclobutanecarboxylic acid {3-[2-(4-morpholin-4-yl-phenylamino)-pyrrolo[2,3-d]pyrimidin-7-yl]-propyl}-amide] | > 7.00 |
| O=C(NCCCn1ccc2cnc(Nc3cccnc3)nc21)c1cccs1 [Example 12, Thiophene-2-carboxylic acid {3-[2-(pyridin-3-ylamino)-pyrrolo[2,3-d]pyrimidin-7-yl]-propyl}-amide] | 6.00 to 7.00 |
| O=C(NCCCn1ccc2cnc(Nc3cccc(CN4CCCC4)c3)nc21)C1CCC1 [Example 6, Cyclobutanecarboxylic acid {3-[2-(3-pyrrolidin-1-ylmethyl-phenylamino)-pyrrolo[2,3-d]pyrimidin-7-yl]-propyl}-amide] | > 7.00 |
| O=C(NCCCn1ccc2cnc(Nc3cccc(CN4CCCCC4)c3)nc21)C1CCC1 [Example 49, Cyclobutanecarboxylic acid {3-[2-(3-piperidin-1-ylmethyl-phenylamino)-pyrrolo[2,3-d]pyrimidin-7-yl]-propyl}-amide] | > 7.00 |
| CN1CCCN(c2ccc(Nc3ncc4ccn(CCCNC(=O)C5CCC5)c4n3)cn2)CC1 [Example 55, Cyclobutanecarboxylic acid (3-{2-[6-(4-methyl-perhydro-1,4-diazepin-1-yl)-pyridin-3-ylamino]-pyrrolo[2,3-d]pyrimidin-7-yl}-propyl)-amide] | 6.00 to 7.00 |
| CC(=O)Nc1cccc(Nc2ncc3ccn(CCCNC(=O)C4CCC4)c3n2)c1 [Example 28, Cyclobutanecarboxylic acid {3-[2-(3-acetylamino-phenylamino)-pyrrolo[2,3-d]pyrimidin-7-yl]-propyl}-amide] | > 7.00 |
| O=C(NCCCn1ccc2cnc(Nc3cccc(N4CCOCC4)c3)nc21)C1CCC1 [Example 48, Cyclobutanecarboxylic acid {3-[2-(3-morpholin-4-yl-phenylamino)-pyrrolo[2,3-d]pyrimidin-7-yl]-propyl}-amide] | > 7.00 |
| O=C(NCCCn1ccc2cnc(Nc3ccc(N4CCOCC4)nc3)nc21)C1CCCCC1 [Example 24, Cyclohexanecarboxylic acid {3-[2-(6-morpholin-4-yl-pyridin-3-ylamino)-pyrrolo[2,3-d]pyrimidin-7-yl]-propyl}-amide] | 6.00 to 7.00 |
| O=C(NCCCn1ccc2cnc(Nc3ccc(N4CCOCC4)nc3)nc21)c1cncs1 [Example 21, Thiazole-5-carboxylic acid {3-[2-(6-morpholin-4-yl-pyridin-3-ylamino)-pyrrolo[2,3-d]pyrimidin-7-yl]-propyl}-amide] | 6.00 to 7.00 |
| O=C(NCCCn1cc(Cl)c2cnc(Nc3cccc(F)c3)nc21)c1cccs1 [Example 38, Thiophene-2-carboxylic acid {3-[5-chloro-2-(3-fluoro-phenylamino)-pyrrolo[2,3-d]pyrimidin-7-yl]-propyl}-amide] | 6.00 to 7.00 |
| O=C(NCCCn1ccc2cnc(Nc3ccc(C4CCN(CCF)CC4)cc3)nc21)C1CCC1 [Example 60, Cyclobutanecarboxylic acid [3-(2-{4-[1-(2-fluoro-ethyl)-piperidin-4-yl]-phenylamino}-pyrrolo[2,3-d]pyrimidin-7-yl)-propyl]-amide] | > 7.00 |
| Cn1cc(Nc2ncc3ccn(CCCNC(=O)C4CCC4)c3n2)cn1 [Example 8, Cyclobutanecarboxylic acid {3-[2-(1-methyl-1H-pyrazol-4-ylamino)-pyrrolo[2,3-d]pyrimidin-7-yl]-propyl}-amide] | > 7.00 |

The next lines start with the values.

| pIC50 | SMILES |
| --- | --- |
| > 7.00 | O=C(NCCCn1cc(Cl)c2cnc(Nc3cccc(F)c3)nc21)C1CCC1 [Example 34, Cyclobutanecarboxylic acid {3-[5-chloro-2-(3-fluoro-phenylamino)-pyrrolo[2,3-d]pyrimidin-7-yl]-propyl}-amide] |
| > 7.00 | O=C(NCCCn1ccc2cnc(Nc3cccc(-c4cnco4)c3)nc21)C1CCC1 [Example 7, Cyclobutanecarboxylic acid {3-[2-(3-oxazol-5-yl-phenylamino)-pyrrolo[2,3-d]pyrimidin-7-yl]-propyl}-amide] |
| > 7.00 | O=C(NCCCn1ccc2cnc(Nc3ccc4ncccc4c3)nc21)C1CCC1 [Example 50, Cyclobutanecarboxylic acid {3-[2-(quinolin-6-ylamino)-pyrrolo[2,3-d]pyrimidin-7-yl]-propyl}-amide] |
| 6.00 to 7.00 | O=C(NCCCn1ccc2cnc(Nc3cccc(F)c3)nc21)C1CCCC1 [Example 32, Cyclopentanecarboxylic acid {3-[2-(3-fluoro-phenylamino)-pyrrolo[2,3-d]pyrimidin-7-yl]-propyl}-amide] |
| > 7.00 | CN1CCc2ccc(Nc3ncc4ccn(CCCNC(=O)C5CCC5)c4n3)cc2C1 [Example 53, Cyclobutanecarboxylic acid {3-[2-(2-methyl-1,2,3,4-tetrahydro-isoquinolin-7-ylamino)-pyrrolo[2,3-d]pyrimidin-7-yl]-propyl}-amide] |
| > 7.00 | O=C(NCCCn1ccc2cnc(Nc3ccc4nccn4c3)nc21)C1CCC1 [Example 45, Cyclobutanecarboxylic acid {3-[2-(imidazo[1,2-a]pyridin-6-ylamino)-pyrrolo[2,3-d]pyrimidin-7-yl]-propyl}amide] |
| > 7.00 | COC1(c2ccc(Nc3ncc4ccn(CCCNC(=O)C5CCC5)c4n3)cc2)CCN(C)CC1 [Example 58, Cyclobutanecarboxylic acid (3-{2-[4-(4-methoxy-1-methyl-piperidin-4-yl)-phenylamino]-pyrrolo[2,3-d]pyrimidin-7-yl}-propyl)-amide] |
| 6.00 to 7.00 | O=C(NCCCn1ccc2cnc(Nc3ccc(N4CCOCC4)nc3)nc21)C1CC1 [Example 22, Cyclopropanecarboxylic acid {3-[2-(6-morpholin-4-yl-pyridin-3-ylamino)-pyrrolo[2,3-d]pyrimidin-7-yl]-propyl}-amide] |
| > 7.00 | O=C(NCCCn1ccc2cnc(Nc3cccc(F)c3)nc21)C1CCC1 [Example 27, Cyclobutanecarboxylic acid {3-[2-(3-fluoro-phenylamino)-pyrrolo[2,3-d]pyrimidin-7-yl]-propyl}-amide] |
| 5.00 to 6.00 | CC(C)C(=O)NCCCn1ccc2cnc(Nc3ccc(N4CCOCC4)nc3)nc21 [Example 23, N-{3-[2-(6-Morpholin-4-yl-pyridin-3-ylamino)-pyrrolo[2,3-d]pyrimidin-7-yl]-propyl}-isobutyramide] |
| 6.00 to 7.00 | N#Cc1cccc(Nc2ncc3ccn(CCCNC(=O)c4cccs4)c3n2)c1 [Example 11, Thiophene-2-carboxylic acid {3-[2-(3-cyano-phenylamino)-pyrrolo[2,3-d]pyrimidin-7-yl]-propyl}-amide] |
